Experimental data: PubChem BioAssay (NCI)
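Where inhibition never reached the appropriate level, the endpoint shown equals the highest concentration tested. Otherwise, values were interpolated linearly from a five-concentration, 48-hour dose response in 96-well plates. GI50 is the concentration that inhibits growth by half. TGI is the concentration that stops growth completely.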

Experiments:
Assay in all cases: inhibition of tumour cell growth, NCI panel, 48 h
OVCAR-3 ovarian = tested on: OVCAR-3 ovarian
NCI-H460 lung = tested on: NCI-H460 lung
UACC-62 melanoma = tested on: UACC-62 melanoma
LOX IMVI melanoma = tested on: LOX IMVI melanoma
ACHN renal = tested on: ACHN renal
KM12 colon = tested on: KM12 colon
SK-MEL-5 melanoma = tested on: SK-MEL-5 melanoma
SK-MEL-28 melanoma = tested on: SK-MEL-28 melanoma
HCC-2998 colon = tested on: HCC-2998 colon
BT-549 breast = tested on: BT-549 breast
SNB-75 CNS = tested on: SNB-75 CNS
OVCAR-8 ovarian = tested on: OVCAR-8 ovarian
RXF 393 renal = tested on: RXF 393 renal
SNB-19 CNS = tested on: SNB-19 CNS
UACC-257 melanoma = tested on: UACC-257 melanoma
HT29 colon = tested on: HT29 colon
MCF7 breast = tested on: MCF7 breast
MDA-MB-435 = tested on: MDA-MB-435
NCI-H23 lung = tested on: NCI-H23 lung
PC-3 prostate = tested on: PC-3 prostate
HCT-15 colon = tested on: HCT-15 colon
SW-620 colon = tested on: SW-620 colon
HOP-62 NSCLC = tested on: HOP-62 NSCLC
OVCAR-4 ovarian = tested on: OVCAR-4 ovarian
IGROV1 ovarian = tested on: IGROV1 ovarian
SK-OV-3 ovarian = tested on: SK-OV-3 ovarian
HCT-116 colon = tested on: HCT-116 colon
NCI/ADR-RES ovarian = tested on: NCI/ADR-RES ovarian

O=C(c1ccc(Cl)cc1)c1no[n+]([O-])c1C(=O)c1ccc(Cl)cc1
GI50 (OVCAR-3 ovarian): 6.6 µM
TGI (OVCAR-3 ovarian): 14.5 µM
GI50 (NCI-H460 lung): 23.6 µM
TGI (NCI-H460 lung): 63 µM
GI50 (UACC-62 melanoma): 13.7 µM
TGI (UACC-62 melanoma): 27.3 µM
GI50 (LOX IMVI melanoma): 1.79 µM
TGI (LOX IMVI melanoma): 3.59 µM
GI50 (ACHN renal): 5.69 µM
TGI (ACHN renal): 17.9 µM
GI50 (KM12 colon): 20.3 µM
TGI (KM12 colon): 45.6 µM
GI50 (SK-MEL-5 melanoma): 15.9 µM
TGI (SK-MEL-5 melanoma): 30.5 µM
GI50 (SK-MEL-28 melanoma): 14.1 µM
TGI (SK-MEL-28 melanoma): 27.8 µM
GI50 (HCC-2998 colon): 21 µM
TGI (HCC-2998 colon): 44.8 µM
GI50 (BT-549 breast): 9.21 µM
TGI (BT-549 breast): 22 µM
GI50 (SNB-75 CNS): 15 µM
TGI (SNB-75 CNS): 29 µM
GI50 (OVCAR-8 ovarian): 14.5 µM
TGI (OVCAR-8 ovarian): 33.8 µM
GI50 (RXF 393 renal): 11.5 µM
TGI (RXF 393 renal): 23.8 µM
GI50 (SNB-19 CNS): 32.7 µM
TGI (SNB-19 CNS): > 95.8 µM
GI50 (UACC-257 melanoma): 14.5 µM
TGI (UACC-257 melanoma): 27.8 µM
GI50 (HT29 colon): 11.2 µM
TGI (HT29 colon): 26.4 µM
GI50 (MCF7 breast): 11.3 µM
TGI (MCF7 breast): 31.7 µM
GI50 (MDA-MB-435): 13.5 µM
TGI (MDA-MB-435): 26.8 µM
GI50 (NCI-H23 lung): 16.5 µM
TGI (NCI-H23 lung): 40.9 µM
GI50 (PC-3 prostate): 8.76 µM
TGI (PC-3 prostate): 22 µM
GI50 (HCT-15 colon): 12.6 µM
TGI (HCT-15 colon): 31 µM
GI50 (SW-620 colon): 11.8 µM
TGI (SW-620 colon): 25.1 µM
GI50 (HOP-62 NSCLC): 28.5 µM
TGI (HOP-62 NSCLC): > 74.7 µM
GI50 (OVCAR-4 ovarian): 13.3 µM
TGI (OVCAR-4 ovarian): 27.5 µM
GI50 (IGROV1 ovarian): 3.87 µM
TGI (IGROV1 ovarian): 10.3 µM
GI50 (SK-OV-3 ovarian): 21 µM
TGI (SK-OV-3 ovarian): 42.9 µM
GI50 (HCT-116 colon): 10.7 µM
TGI (HCT-116 colon): 27.4 µM
GI50 (NCI/ADR-RES ovarian): 20.5 µM
TGI (NCI/ADR-RES ovarian): 49.8 µM
